Columns and labels:
Format in all cases: in vivo
[1] = system: Echinochloa oryzicola Vasing. (Eo); test: Test for herbicidal effect by paddy field soil treatment (Test Example 1); settings: application amount (active ingredient) 100 g/10 a, examined at the 21st day from the treatment, index per Table 40
Experimental: <Test Example 1> Test For Herbicidal Effect By Paddy Field Soil Treatment A paddy field soil was filled in a plastic pot of 100 cm^2 and subjected to puddling. Then, seeds of Echinochloa oryzicola Vasing. (Eo) were sowed and water was filled in a depth of 3 cm. Next day, wettable powders produced in accordance with the Formulation 1 were diluted with water and dropped on the water surface. The application amount of each wettable powder was 100 g per 10 ares in terms of the active ingredient. Then, breeding was made in a greenhouse, and the herbicidal effect of each wettable powder was examined at the 21st day from the treatment in accordance with the standard shown in Table 40. [table]

[2] = system: Echinochloa crus-galli (L.) Beauv. var. crusgall (Ec); test: Test for herbicidal effect by upland field soil treatment (Test Example 2), Ec
Experimental: (§1) [table] <Test Example 2> Test For Herbicidal Effect By Upland Field Soil Treatment An upland field soil was filed in a plastic pot of 80 cm^2. Seeds of Echinochloa crus-galli (L.) Beauv. var. crusgall (Ec) and Setaria viridis (L.) Beauv. (Se) were sowed, followed by covering with the same soil. Wettable powders produced in accordance with the Formulation 1 were diluted with water and sprayed uniformly: on the soil surface using a small sprayer, in an amount of 100 liters per 10 ares so that the amount of each active ingredient became 100 g per 10 ares. Then, breeding was made in a greenhouse, and the herbicidal effect of each wettable powder was examined at the 21st day from the treatment in accordance with the standard shown in Table 40.

[3] = system: Setaria viridis (L.) Beauv. (Se); test: Test for herbicidal effect by upland field soil treatment (Test Example 2), Se
Experimental: as §1

[4] = system: Echinochloa crus-galli (L.) Beauv. var. crusgalli (Ec); test: Test for herbicidal effect by upland foliage treatment (Test Example 3); settings: 100 g/10 a active ingredient, examined at 14th day
Experimental: Test For Herbicidal Effect By Upland Foliage Treatment
An upland field soil was filed in a plastic pot of 80 cm^2. Seeds of Echinochloa crus-galli (L.) Beauv. var. crusgalli (Ec) were sowed. Breeding was made in a greenhouse for 2 weeks. Wettable powders produced in accordance with the Formulation 1 were diluted with water and sprayed on the whole foliage of plants from above the plants using a small sprayer in an amount of 100 liters per 10 ares so that the amount of each active ingredient became 100 g per 10 ares. Then, breeding was made in the greenhouse, and the herbicidal effect of each wettable powder was examined at the 14th day from the treatment in accordance with the standard shown in Table 40.

[5] = application amount (active ingredient) 100 g/10 a, examined at the 21st day from the treatment, index per Table 40
[6] = 100 g/10 a active ingredient, examined at 21st day

Structure (SMILES) | Herbicidal effect to Eo [1] | Herbicidal effect to Ec [2, 5] | Herbicidal effect to Se [3, 5] | Herbicidal effect to Ec [4] | Herbicidal effect to Ec [2, 6] | Herbicidal effect to Se [3, 6]
Cc1cccc(CS(=O)(=O)C2=NOC(C)(C)C2)c1 [Compound 1-6] | 5 (A herbicidal effect or phytotoxicity of 90% or more) | 5 (A herbicidal effect or phytotoxicity of 90% or more) | 5 (A herbicidal effect or phytotoxicity of 90% or more) | 4 (A herbicidal effect or phytotoxicity of 70% to less than 90%) | – | –
Cc1cccc(CS(=O)(=O)C2=NOC(C)(C)C2)c1C [Compound 1-522] | 5 (A herbicidal effect or phytotoxicity of 90% or more) | – | – | 5 (A herbicidal effect or phytotoxicity of 90% or more) | 5 (A herbicidal effect or phytotoxicity of 90% or more) | 5 (A herbicidal effect or phytotoxicity of 90% or more)
CCOc1cccc(OCC)c1CS(=O)(=O)C1=NOC(C)(C)C1 [Compound 1-536] | 5 (A herbicidal effect or phytotoxicity of 90% or more) | – | – | 4 (A herbicidal effect or phytotoxicity of 70% to less than 90%) | 5 (A herbicidal effect or phytotoxicity of 90% or more) | 5 (A herbicidal effect or phytotoxicity of 90% or more)
CCOc1c(C)cccc1CS(=O)(=O)C1=NOC(C)(C)C1 [Compound 1-186] | 5 (A herbicidal effect or phytotoxicity of 90% or more) | 5 (A herbicidal effect or phytotoxicity of 90% or more) | 5 (A herbicidal effect or phytotoxicity of 90% or more) | 5 (A herbicidal effect or phytotoxicity of 90% or more) | – | –
CC1(C)CC(S(=O)(=O)Cc2cc(C(F)(F)F)ccc2C(F)(F)F)=NO1 [Compound 1-544] | 5 (A herbicidal effect or phytotoxicity of 90% or more) | – | – | 5 (A herbicidal effect or phytotoxicity of 90% or more) | 5 (A herbicidal effect or phytotoxicity of 90% or more) | 5 (A herbicidal effect or phytotoxicity of 90% or more)
CC1(C)CC(S(=O)(=O)Cc2cccc(C(F)(F)F)c2)=NO1 [Compound 1-158] | 5 (A herbicidal effect or phytotoxicity of 90% or more) | 5 (A herbicidal effect or phytotoxicity of 90% or more) | 5 (A herbicidal effect or phytotoxicity of 90% or more) | 5 (A herbicidal effect or phytotoxicity of 90% or more) | – | –
Cc1ccccc1CS(=O)(=O)C1=NOC(C)(C)C1 [Compound 1-5] | 5 (A herbicidal effect or phytotoxicity of 90% or more) | 5 (A herbicidal effect or phytotoxicity of 90% or more) | 5 (A herbicidal effect or phytotoxicity of 90% or more) | 5 (A herbicidal effect or phytotoxicity of 90% or more) | – | –
CC1(C)CC(S(=O)(=O)Cc2ccccc2OC(F)F)=NO1 [Compound 1-55] | 5 (A herbicidal effect or phytotoxicity of 90% or more) | 5 (A herbicidal effect or phytotoxicity of 90% or more) | 5 (A herbicidal effect or phytotoxicity of 90% or more) | 4 (A herbicidal effect or phytotoxicity of 70% to less than 90%) | – | –
CCCOc1cccc(Cl)c1CS(=O)(=O)C1=NOC(C)(C)C1 [Compound 1-565] | 5 (A herbicidal effect or phytotoxicity of 90% or more) | – | – | 4 (A herbicidal effect or phytotoxicity of 70% to less than 90%) | 5 (A herbicidal effect or phytotoxicity of 90% or more) | 5 (A herbicidal effect or phytotoxicity of 90% or more)
CC1(C)CC(S(=O)(=O)Cc2ccc(F)c(F)c2)=NO1 [Compound 1-497] | 5 (A herbicidal effect or phytotoxicity of 90% or more) | 5 (A herbicidal effect or phytotoxicity of 90% or more) | 5 (A herbicidal effect or phytotoxicity of 90% or more) | 5 (A herbicidal effect or phytotoxicity of 90% or more) | – | –
C#CCOc1cccc(C)c1CS(=O)(=O)C1=NOC(C)(C)C1 [Compound 1-607] | 5 (A herbicidal effect or phytotoxicity of 90% or more) | – | – | 5 (A herbicidal effect or phytotoxicity of 90% or more) | 5 (A herbicidal effect or phytotoxicity of 90% or more) | 5 (A herbicidal effect or phytotoxicity of 90% or more)
COCc1ccccc1CS(=O)(=O)C1=NOC(C)(C)C1 [Compound 1-160] | 5 (A herbicidal effect or phytotoxicity of 90% or more) | 5 (A herbicidal effect or phytotoxicity of 90% or more) | 5 (A herbicidal effect or phytotoxicity of 90% or more) | 5 (A herbicidal effect or phytotoxicity of 90% or more) | – | –
CC(C)COc1cccc(Cl)c1CS(=O)(=O)C1=NOC(C)(C)C1 [Compound 1-572] | 5 (A herbicidal effect or phytotoxicity of 90% or more) | – | – | 4 (A herbicidal effect or phytotoxicity of 70% to less than 90%) | 5 (A herbicidal effect or phytotoxicity of 90% or more) | 5 (A herbicidal effect or phytotoxicity of 90% or more)
CCC1(C)CC(S(=O)(=O)Cc2ccccc2Cl)=NO1 (stereo not drawn) [Compound 1-192] | 5 (A herbicidal effect or phytotoxicity of 90% or more) | 5 (A herbicidal effect or phytotoxicity of 90% or more) | 5 (A herbicidal effect or phytotoxicity of 90% or more) | 4 (A herbicidal effect or phytotoxicity of 70% to less than 90%) | – | –
CCC1(C)CC(S(=O)(=O)Cc2ccccc2C(F)(F)F)=NO1 (stereo not drawn) [Compound 1-336] | 5 (A herbicidal effect or phytotoxicity of 90% or more) | 5 (A herbicidal effect or phytotoxicity of 90% or more) | 5 (A herbicidal effect or phytotoxicity of 90% or more) | 5 (A herbicidal effect or phytotoxicity of 90% or more) | – | –
CC1(C)CC(S(=O)(=O)Cc2c(Cl)cccc2Cl)=NO1 [Compound 1-490] | 5 (A herbicidal effect or phytotoxicity of 90% or more) | 5 (A herbicidal effect or phytotoxicity of 90% or more) | 4 (A herbicidal effect or phytotoxicity of 70% to less than 90%) | 4 (A herbicidal effect or phytotoxicity of 70% to less than 90%) | – | –
COc1cccc(Cl)c1CS(=O)(=O)C1=NOC(C)(C)C1 [Compound 1-563] | 5 (A herbicidal effect or phytotoxicity of 90% or more) | – | – | 4 (A herbicidal effect or phytotoxicity of 70% to less than 90%) | 5 (A herbicidal effect or phytotoxicity of 90% or more) | 5 (A herbicidal effect or phytotoxicity of 90% or more)
CC1(C)CC(S(=O)(=O)Cc2cccc(OC(F)(F)F)c2)=NO1 [Compound 1-59] | 5 (A herbicidal effect or phytotoxicity of 90% or more) | 5 (A herbicidal effect or phytotoxicity of 90% or more) | 5 (A herbicidal effect or phytotoxicity of 90% or more) | 5 (A herbicidal effect or phytotoxicity of 90% or more) | – | –
C=CCOc1ccccc1CS(=O)(=O)C1=NOC(C)(C)C1 [Compound 1-589] | 5 (A herbicidal effect or phytotoxicity of 90% or more) | – | – | 4 (A herbicidal effect or phytotoxicity of 70% to less than 90%) | 5 (A herbicidal effect or phytotoxicity of 90% or more) | 5 (A herbicidal effect or phytotoxicity of 90% or more)
CC1(C)CC(S(=O)(=O)Cc2cc(Br)cc(Br)c2)=NO1 [Compound 1-545] | 5 (A herbicidal effect or phytotoxicity of 90% or more) | – | – | 5 (A herbicidal effect or phytotoxicity of 90% or more) | 5 (A herbicidal effect or phytotoxicity of 90% or more) | 5 (A herbicidal effect or phytotoxicity of 90% or more)
Cc1cccc(CS(=O)(=O)C2=NOC(C)(C)C2)c1F [Compound 1-187] | 5 (A herbicidal effect or phytotoxicity of 90% or more) | 5 (A herbicidal effect or phytotoxicity of 90% or more) | 5 (A herbicidal effect or phytotoxicity of 90% or more) | 5 (A herbicidal effect or phytotoxicity of 90% or more) | – | –

— US6841519B1, “Isoxazoline derivatives and herbicides containing the same as the active ingredient” (Kumiai Chemical Industry Co., Ltd., priority 1999, dated 2005)
